How the values were obtained:
balding scalp = experiment: observation of balding scalp in a person treated with 13-cis-retinoic acid for cystic acne; type: in vivo, human; conditions: person treated for five months for cystic acne
From the text: Linoleic acid has been proven in vitro to prevent growth of P. acnes in culture at concentrations similar to the normal level found in follicles not influenced by DHT stimulation of oil production. […] 8 Leyden, James J. M D et al., “Qualitative and Quantitative Changes in Cutaneous Bacteria Associated with Systemic Isotretinoin Therapy for Acne Conglobata”, Journal of Investigative Dermatology, Vol. 86, 390-393, 1986.

P. acnes [1] = conditions: parallel to reduction of sebaceous gland oil production; cited from earlier work
male pattern AGA = conditions: cited from earlier work
keratosis pilaris = experiment: topical linoleic acid oil in patients with keratosis pilaris; type: in vivo, human; conditions: in the form of an oil, more than 20 patients
From the text: In pre-pubertal children prior to hormonal stimulation of facial oil production, it can be seen transiently on the cheeks, typically the least oily part of the face. […] The histology is reminiscent of the intra-follicular hyperkeratosis and low-level microinflammation seen in AGA follicles, except that AGA scalp follicles are larger and have large sebaceous glands opening into them. It is likely that localized linoleic acid deficiency with resultant aberrations in keratinization and in inflammation, due to permissive changes in microflora such as P. acnes and yeasts, is its etiology. Topical linoleic acid preparations would therefore be a logical approach to the treatment of the condition.

P. acnes [2] = conditions: prior art of this inventor; cited from earlier work

**Q.** With CC1=C(/C=C/C(C)=C/C=C/C(C)=C\C(=O)O)C(C)(C)CCC1 [13-cis-retinoic acid] as the compound, how does the “terminal (full sized) hair growth in balding scalp” value (balding scalp) read?
**A.** Its value is “increased terminal (full sized) hair growth”.

**Q.** And the “P. acnes counts in acne-prone skin” value (P. acnes [1])?
**A.** Its value is “parallel and equal reduction in P. acnes counts”.

**Q.** Which “recipients who lost less scalp hair” value (male pattern AGA; after one month, oral) does the source give for CC(C)(C)NC(=O)[C@H]1CC[C@H]2[C@@H]3CC[C@H]4NC(=O)C=C[C@]4(C)[C@H]3CC[C@]12C [finasteride] here?
**A.** Its value is 95%.

**Q.** What about the “recipients who began regrowing lost hairs” value (male pattern AGA; after six months, oral) of the same compound?
**A.** The value was 67%.

**Q.** And the “balding recipients showing poor or no response” value (male pattern AGA; in vivo)?
**A.** Its value is no less than 35%.

**Q.** What does the source list for CCCCC/C=C\C/C=C\CCCCCCCC(=O)O [linoleic acid]?
**A.** roughness and redness of clinical keratosis pilaris (keratosis pilaris): amelioration of both the roughness and redness; concentration required to completely inhibit growth of P. acnes in culture (P. acnes [2]): 2%
